Test results from publication PMC4454677, “Prolyl Oligopeptidase from the Blood Fluke Schistosoma mansoni: From Functional Analysis to Anti-schistosomal Inhibitors” (PLoS Neglected Tropical Diseases, 2015).
“Also recorded” adds a separate entry of the source. Counter-ions that a name gives are not always drawn. Like-named read-outs stand apart in the source and are kept apart here. Numbered stars: 1 amine (or outer) side, 2 acyl side, 3 side chain; on linkers, the order of the positions; unused ones are H or OH. Square brackets hold non-standard residues; d marks the D form. Peptide text beside a SMILES is read from it. * marks the point of attachment. Sta = CC(C)C[C@H](N)[C@@H](O)CC(=O)O; Isovaleryl = CC(C)CC(=O)*; Cbz = O=C(OCc1ccccc1)*; CO = O=C([*:1])[*:2]; CH2Cl = ClC*

Legend:
[1] = biological target: recombinant SmPOP (Schistosoma mansoni, UniProt A0A5K4EZK1); assay: biochemical; assay type: biochemical
[2] = tested on: newly transformed schistosomula (NTS); assay: Parasite assay and phenotype scoring with NTS in culture; assay type: cell-based, Schistosoma mansoni; conditions: inhibitors at 10 μM and 1 μM, up to 4 days, grade I most severe
Protocol: NTS (200–300 parasites) were incubated in 200 μL of Basch Medium 169 and supplements, as described above. Inhibitors were added at final concentrations of 1 or 10 μM (0.5% DMSO final) and the incubations continued for 4 days. Grading of phenotypic responses arising as a function of time and concentration was modified after Jilkova et al.: Grade I, dead NTS by 2 days of culture at 10 μM and dying/dead NTS by 3 days at 1 μM. Grade II, dead NTS by 3 days at 10 μM and round/dark/dying by 3 days at 1 μM; Grade III, round/dark by 3 days at 1 and 10 μM concentrations (S1 Fig). ‘Dead’ was adjudicated as the loss of normal shape and the lack of movement often accompanied by obvious internal disruptions. ‘Dying’ was similar to death except that movement was detectable. Otherwise, the terms ‘round/dark’ were used to indicate less severe but obvious changes in the parasites relative to DMSO controls.

[3] = biological target: T1, human POP (HsPOP) (Homo sapiens, UniProt P48147); assay: biochemical
T1 sequence (P48147 1-710): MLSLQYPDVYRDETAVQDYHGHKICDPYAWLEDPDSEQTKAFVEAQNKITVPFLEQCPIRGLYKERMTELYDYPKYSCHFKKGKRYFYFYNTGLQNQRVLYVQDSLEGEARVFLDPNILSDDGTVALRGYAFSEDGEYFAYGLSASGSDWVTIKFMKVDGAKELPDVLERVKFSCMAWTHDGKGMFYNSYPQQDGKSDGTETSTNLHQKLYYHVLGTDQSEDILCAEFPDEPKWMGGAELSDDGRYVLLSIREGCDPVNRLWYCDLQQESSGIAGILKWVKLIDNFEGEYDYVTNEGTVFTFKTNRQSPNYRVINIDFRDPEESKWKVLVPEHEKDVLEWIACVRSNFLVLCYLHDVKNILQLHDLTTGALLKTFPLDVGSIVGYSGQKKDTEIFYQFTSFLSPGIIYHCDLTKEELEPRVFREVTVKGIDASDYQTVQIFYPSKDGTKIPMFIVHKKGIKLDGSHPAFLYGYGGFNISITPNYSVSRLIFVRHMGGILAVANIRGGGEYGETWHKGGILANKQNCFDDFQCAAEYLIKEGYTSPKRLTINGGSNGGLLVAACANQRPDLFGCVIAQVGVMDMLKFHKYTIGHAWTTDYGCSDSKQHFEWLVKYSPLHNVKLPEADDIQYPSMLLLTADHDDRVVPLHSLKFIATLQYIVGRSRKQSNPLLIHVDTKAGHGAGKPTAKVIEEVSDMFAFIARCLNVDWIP

[4] = tested on: SmPOP activity of live NTS and adult schistosomes; assay: Fluorescence SmPOP activity assay with cultured schistosomes; assay type: cell-based, Schistosoma mansoni; conditions: 1 μM inhibitor; NTS or adult worms in culture
Protocol: Adult worms (3 pairs) or approximately 150 NTS were incubated at 37°C and 5% CO2 for 2 days in 200 μL of Basch Medium 169 containing 5% FBS, 100 units/mL of penicillin and 100 μg/mL using black clear bottomed 96-well microplates (Costar). After incubation, half of the medium (100 μl) was transferred to an empty well leaving the parasites in the remaining half. Then SmPOP activity was measured in both wells upon the addition of 20 μL of Z-Gly-Pro-AMC (prepared as a 250 μM stock in Basch Medium 169) and in the presence or absence of 1 μM of the POP inhibitor, Z-Ala-Pro-CMK. Controls contained medium alone.

[5] = tested on: adult schistosomes (cleavage of angiotensin I and bradykinin); assay: Hydrolysis of peptide hormones by cultured schistosomes (MALDI-TOF); assay type: cell-based, Schistosoma mansoni; conditions: live adults in culture; 16 h; mass spectrometry
Protocol: Five adult schistosome pairs were placed into clear, 24-well, flat-bottom plates (Costar) containing 500 μL Basch Medium […] [28], supplemented with 2.5% FBS, 100 units/mL penicillin and 100 μg/mL streptomycin. Human angiotensin I or bradykinin in 5 μL water was added to a final concentration of 100 μM and the incubation continued for 16 h at 37°C under a 5% CO2 atmosphere. In control experiments, the peptides were cultivated in the same system in the absence of schistosomes. After incubation, the samples were ZipTiped and the resulting fragments were analyzed using MALDI-TOF performed on an UltrafleXtreme (Bruker Daltonik) operated in reflectron mode with an acceleration voltage of 25 kV and a pulsed ion extraction of 120 ns. Desorption and ionization were achieved using a Smartbeam II laser. α-Cyano-4-hydroxycinnamic acid was used as a matrix. The data were acquired from m/z 220 to 3700 and analyzed with the FlexAnalysis 3.3 software (Bruker Daltonik). The mass spectra were externally calibrated using a Peptide Calibration Standard I (Bruker Daltonik) and averaged from 3000 laser shots.

Molecule: CC(C)C[C@H](NC(=O)[C@H]1O[C@@H]1C(=O)O)C(=O)NCCCCN=C(N)N (relative stereo) [E64, trans-Epoxysuccinyl-L-leucylamido(4-guanidino)butane]
- Inhibition (%) ([1]; 10 µM): 6.5±6.1%

Molecule: O=c1oc(Cl)c(Cl)c2ccccc12 [3,4-dichloroisocoumarin]
- Inhibition of rSmPOP activity (in words) [1]: Partial inhibition
- inhibition at 100 µM [1]: 77.3 ± 0.6%

Molecule: CC(C)[C@H](NC(=O)[C@H](CCCNC(=N)N)NC(=O)N[C@@H](Cc1ccccc1)C(=O)O)C(=O)N[C@H](C=O)CCCNC(=N)N [Antipain] ({Phe-CO}-Arg-Val-Arg-aldehyde)
- inhibition at 20 µM [1]: 32.4 ± 1.4%

Molecule: N=C(N)c1ccccc1 [Benzamidine]
- Inhibition of rSmPOP activity (in words) [1]: only weakly
- inhibition at 10 µM [1]: 3.7 ± 1.1%

Molecule: CC(C)C[C@H](NC(=O)[C@@H](O)[C@H](N)Cc1ccccc1)C(=O)O [Bestatin]
- inhibition at 1 µM ([1]; read-out: Inhibition (%)): 2.3 ± 2.1%

Molecule: O=C(O)CN(CCN(CC(=O)O)CC(=O)O)CC(=O)O [EDTA]
- Inhibition (%) ([1]; 1000 µM): 3.8±2.3%

Molecule: CC(=O)N[C@@H](CC(C)C)C(=O)N[C@@H](CC(C)C)C(=O)N[C@H](C=O)CCCNC(=N)N [Leupeptin]
- inhibition at 20 µM [1]: 2.3 ± 1.2%

Molecule: O=S(=O)(F)Cc1ccccc1 [PMSF, phenylmethylsulfonyl fluoride]
- Inhibition of rSmPOP activity (in words) [1]: Partial inhibition
- Inhibition (%) ([1]; 1000 µM): 47.6±1.6%

Molecule: Cl.NCCc1ccc(S(=O)(=O)F)cc1 [Pefabloc SC]
- Inhibition of rSmPOP activity (in words) [1]: Partial inhibition; also recorded: only weakly
- Inhibition (%) ([1]; 1000 µM): 12.0±3.1%

Molecule: CC(C)CC(=O)N[C@H](C(=O)N[C@H](C(=O)N[C@@H](CC(C)C)[C@@H](O)CC(=O)N[C@@H](C)C(=O)N[C@@H](CC(C)C)[C@@H](O)CC(=O)O)C(C)C)C(C)C [Pepstatin A] (Isovaleryl-VV[Sta]A[Sta]-OH)
- inhibition at 1 µM [1]: 7.3 ± 3.5%

Molecule: O=C([C@@H]1C[C@@H](O)CN1C(=O)CCCOc1ccccc1/C=C/c1ccccc1)N1CCSC1 [SUAM 14746]
- Severity of phenotype against parasite, Grade [2]: no effect
- IC50 ([1]; read-out: IC50 SmPOP): 0.092 µM
- IC50 ([3]; read-out: IC50 human POP): 0.083 µM

Molecule: Cc1ccc(S(=O)(=O)N[C@@H](CCCCN)C(=O)CCl)cc1 [TLCK, Nα-Tosyl-L-lysine chloromethyl ketone]
- Inhibition of rSmPOP activity (in words) [1]: Partial inhibition
- Inhibition (%) ([1]; 1 µM): 38.3±1.2%

Molecule: Cc1ccc(S(=O)(=O)N[C@@H](Cc2ccccc2)C(=O)CCl)cc1 [TPCK, N-p-Tosyl-L-phenylalanine chloromethyl ketone]
- Inhibition of rSmPOP activity (in words) [1]: Partial inhibition
- Inhibition (%) ([1]; 1 µM): 67.2±6.2%

Molecule: CC(C)c1ccc(C(=O)c2cccs2)c(SCCCCCCCCN(C)C)n1 [Y-29794 oxalate, 2-[[8-(Dimethylamino)octyl]thio]-6-(1-methylethyl)-3-pyridinyl-2-thienylmethanone oxalate]
- IC50 ([1]; read-out: IC50 (μM) SmPOP): 8.6 ± 0.4 µM
- IC50 ([3]; HsPOP, Z-Gly-Pro-AMC, pH 8.0, mean ± S.D., n=3, read-out: IC50 (μM) HsPOP): 0.49 ± 0.03 µM

Molecule: C[C@H](NC(=O)OCc1ccccc1)C(=O)N1CCC[C@H]1C=O [Z-Ala-Pro-CHO] (Cbz-Ala-Pro-aldehyde)
- IC50 ([1]; read-out: IC50 (μM) SmPOP): 3.1 ± 0.2 µM
- IC50 ([3]; read-out: IC50 (μM) HsPOP): 6.1 ± 0.3 µM

Molecule: C[C@H](NC(=O)OCc1ccccc1)C(=O)N1CCC[C@H]1C(=O)CCl [Z-Ala-Pro-CMK, Z-Ala-Pro-chloromethyl ketone] (Cbz-Ala-Pro-CH2Cl)
- Cleavage of Z-Gly-Pro-AMC by live NTS or adult schistosomes in the presence of inhibitor [4]: abolished
- Inhibition of rSmPOP activity (in words) [1]: completely inhibited
- inhibition at 1 µM [1]: 100 ± 3%
- IC50 ([1]; read-out: IC50 (μM) SmPOP): 0.0032 ± 0.0004 µM
- IC50 ([3]; read-out: IC50 (μM) HsPOP): 0.0168 ± 0.0046 µM
- Fragmentation of angiotensin I and bradykinin by adult parasites in the presence of inhibitor [5]: abolished

Molecule: N=C(N)NCCC[C@H](NC(=O)OCc1ccccc1)C(=O)N1CCC[C@H]1C=O [Z-Arg-Pro-CHO] (Cbz-Arg-Pro-aldehyde)
- IC50 ([1]; read-out: IC50 (μM) SmPOP): 1.3 ± 0.3 µM
- IC50 ([3]; read-out: IC50 (μM) HsPOP): 2.4 ± 0.2 µM

Molecule: N=C(N)NCCC[C@H](NC(=O)OCc1ccccc1)C(=O)N1CCC[C@H]1C(=O)CCl [Z-Arg-Pro-CMK] (Cbz-Arg-Pro-CH2Cl)
- IC50 ([1]; read-out: IC50 (μM) SmPOP): 0.0029 ± 0.0001 µM
- IC50 ([3]; read-out: IC50 (μM) HsPOP): 0.0048 ± 0.0006 µM

Molecule: O=C[C@@H]1CCCN1C(=O)CNC(=O)OCc1ccccc1 [Z-Gly-Pro-CHO] (Cbz-Gly-Pro-aldehyde)
- IC50 ([1]; read-out: IC50 (μM) SmPOP): 6.1 ± 0.4 µM

Molecule: NCCCC[C@H](NC(=O)OCc1ccccc1)C(=O)N1CCC[C@H]1C=O [Z-Lys-Pro-CHO] (Cbz-Lys-Pro-aldehyde)
- Severity of phenotype against parasite, Grade [2]: I
- IC50 ([1]; read-out: IC50 (μM) SmPOP): 3 ± 0.6 µM
- IC50 ([3]; read-out: IC50 (μM) HsPOP): 7.2 ± 0.6 µM

Molecule: O=C(O)[C@@H]1CCCN1C(=O)OCc1ccccc1 [Z-Pro-OH]
- Inhibition (%) ([1]; 100 µM): 41.1±1.8%

Molecule: O=C[C@@H]1CCCN1C(=O)[C@@H]1CCCN1C(=O)OCc1ccccc1 [Z-Pro-Pro-CHO, benzyloxycarbonyl-L-prolyl-L-prolinal] (Cbz-Pro-Pro-aldehyde)
- Severity of phenotype against parasite, Grade [2]: no effect
- Inhibition of rSmPOP activity (in words) [1]: completely inhibited
- IC50 ([1]; read-out: IC50 (μM) SmPOP): 0.16 ± 0.03 µM
- inhibition at 1 µM ([1]; read-out: Inhibition (%)): 100 ± 1%

Molecule: O=C(O)[C@@H]1CCCN1C(=O)[C@@H]1CCCN1C(=O)OCc1ccccc1 [Z-Pro-Pro-OH] (Cbz-Pro-Pro-OH)
- Inhibition (%) ([1]; 100 µM): 37.6±2.1%

Molecule: O=C[C@@H]1CCCN1C(=O)[C@H](Cc1ccc(O)cc1)NC(=O)OCc1ccccc1 [Z-Tyr-Pro-CHO] (Cbz-Tyr-Pro-aldehyde)
- IC50 ([1]; read-out: IC50 (μM) SmPOP): 4.4 ± 0.4 µM
- IC50 ([3]; read-out: IC50 (μM) HsPOP): 11.4 ± 0.7 µM

B1: STI: soybean trypsin inhibitor, protein inhibitor of serine peptidases (protein, UniProt P01070 25-205, looked up)
Trypsin inhibitor A: DFVLDNEGNPLENGGTYYILSDITAFGGIRAAPTGNERCPLTVVQSRNELDKGIGTIISSPYRIRFIAEGHPLSLKFDSFAVIMLCVGIPTEWSVVEDLPEGPAVKIGENKDAMDGWFRLERVSDDEFNNYKLVFCPQQAEDDKCGDIGISIDHDDGTRRLVVSKNKPLVVQFQKLDKESL
- Inhibition of rSmPOP activity (in words) [1]: neither affected
- Inhibition (%) ([1]; 10 µM): 12.3±3.2%
